Assay results published in article PMC3115942 (PLoS ONE, 2011).

How the values were obtained:
[1] = test system: Gli1 protein in Sufu−/− MEF; assay: Gli1 immunostaining of Sufu−/− MEF; type: cell-based, mouse; conditions: 20 µM, 48 hours
[2] = test system: PANC-1 cells; assay: In vitro antiproliferative assay (MTS), PANC-1; type: cell-based, human; conditions: 5 µM, 4 day
Method: Cells were plated at a density of 3000 (THLE-2 and PC-3) and 1000 (PANC-1, SUIT-2 and FEMX) cells per well (on the basis of their growth rate) in 200 µl of medium in a 96-well plate. Medium was changed daily, and after four days, the assay was read using a MTS kit (Promega) according to the instructions of the manufacturer. Graphs display average of percent growth with standard deviation (n = 8).

[3] = target: T1, SRPK1(h) (Homo sapiens, UniProt Q96SB4); assay: Millipore kinaseprofiler diversity array; type: biochemical; conditions: 10 µM MS-0022
T1 construct: purchased Millipore (Upstate) KinaseProfiler
Method: (§1) Table 4 Kinase activity in presence of 10 µM MS-0022 in a kinaseprofiler diversity array. | column: Activity %

[4] = target: T2, ASK1(h) (Homo sapiens, UniProt Q99683); assay: Millipore kinaseprofiler diversity array; type: biochemical; conditions: 10 µM MS-0022
T2 construct: purchased Millipore (Upstate) KinaseProfiler
Method: as §1

[5] = target: T3, TAK1(h) (Homo sapiens, UniProt O43318); assay: Millipore kinaseprofiler diversity array; type: biochemical; conditions: 10 µM MS-0022
T3 construct: purchased Millipore (Upstate) KinaseProfiler
Method: as §1

[6] = target: T4, CK2α2(h) (Homo sapiens, UniProt P19784); assay: Millipore kinaseprofiler diversity array; type: biochemical; conditions: 10 µM MS-0022
T4 construct: purchased Millipore (Upstate) KinaseProfiler
Method: as §1

[7] = target: T5, SAPK2a(h) (Homo sapiens, UniProt Q16539); assay: Millipore kinaseprofiler diversity array; type: biochemical; conditions: 10 µM MS-0022
T5 construct: purchased Millipore (Upstate) KinaseProfiler
Method: as §1

[8] = target: T6, EphA5(h) (Homo sapiens, UniProt P54756); assay: Millipore kinaseprofiler diversity array; type: biochemical; conditions: 10 µM MS-0022
T6 construct: purchased Millipore (Upstate) KinaseProfiler
Method: as §1

[9] = target: T7, CaMKI(h) (Homo sapiens, UniProt Q14012); assay: Millipore kinaseprofiler diversity array; type: biochemical; conditions: 10 µM MS-0022
T7 construct: purchased Millipore (Upstate) KinaseProfiler
Method: as §1

[10] = target: T8, ALK(h) (Homo sapiens, UniProt Q9UM73); assay: Millipore kinaseprofiler diversity array; type: biochemical; conditions: 10 µM MS-0022
T8 construct: purchased Millipore (Upstate) KinaseProfiler
Method: as §1

[11] = target: T9, CDK7/cyclinH/MAT1(h) (Homo sapiens, UniProt P50613); assay: Millipore kinaseprofiler diversity array; type: biochemical; conditions: 10 µM MS-0022
T9 construct: purchased Millipore (Upstate) KinaseProfiler
Method: as §1

[12] = target: T10, EGFR(h) (Homo sapiens, UniProt P00533); assay: Millipore kinaseprofiler diversity array; type: biochemical; conditions: 10 µM MS-0022
T10 construct: purchased Millipore (Upstate) KinaseProfiler
Method: as §1

[13] = target: T11, PKBα(h) (Homo sapiens, UniProt P31749); assay: Millipore kinaseprofiler diversity array; type: biochemical; conditions: 10 µM MS-0022
T11 construct: purchased Millipore (Upstate) KinaseProfiler
Method: as §1

[14] = target: T12, eEF-2K(h) (Homo sapiens, UniProt O00418); assay: Millipore kinaseprofiler diversity array; type: biochemical; conditions: 10 µM MS-0022
T12 construct: purchased Millipore (Upstate) KinaseProfiler
Method: as §1

[15] = target: T13, Abl(h) (Homo sapiens, UniProt P00519); assay: Millipore kinaseprofiler diversity array; type: biochemical; conditions: 10 µM MS-0022
T13 construct: purchased Millipore (Upstate) KinaseProfiler
Method: as §1

[16] = target: T14, CK1γ1(h) (Homo sapiens, UniProt Q9HCP0); assay: Millipore kinaseprofiler diversity array; type: biochemical; conditions: 10 µM MS-0022
T14 construct: purchased Millipore (Upstate) KinaseProfiler
Method: as §1

[17] = target: T15, CHK1(h) (Homo sapiens, UniProt O14757); assay: Millipore kinaseprofiler diversity array; type: biochemical; conditions: 10 µM MS-0022
T15 construct: purchased Millipore (Upstate) KinaseProfiler
Method: as §1

[18] = target: T16, JNK3(h) (Homo sapiens, UniProt P53779); assay: Millipore kinaseprofiler diversity array; type: biochemical; conditions: 10 µM MS-0022
T16 construct: purchased Millipore (Upstate) KinaseProfiler
Method: as §1

[19] = target: T17, KDR(h) (Homo sapiens, UniProt P35968); assay: Millipore kinaseprofiler diversity array; type: biochemical; conditions: 10 µM MS-0022
T17 construct: purchased Millipore (Upstate) KinaseProfiler
Method: as §1

[20] = target: T18, c-RAF(h) (Homo sapiens, UniProt P04049); assay: Millipore kinaseprofiler diversity array; type: biochemical; conditions: 10 µM MS-0022
T18 construct: purchased Millipore (Upstate) KinaseProfiler
Method: as §1

[21] = target: T19, MKK7β(h) (Homo sapiens, UniProt O14733); assay: Millipore kinaseprofiler diversity array; type: biochemical; conditions: 10 µM MS-0022
T19 construct: purchased Millipore (Upstate) KinaseProfiler
Method: as §1

[22] = target: T20, PKCα(h) (Homo sapiens, UniProt P17252); assay: Millipore kinaseprofiler diversity array; type: biochemical; conditions: 10 µM MS-0022
T20 construct: purchased Millipore (Upstate) KinaseProfiler
Method: as §1

[23] = target: T21, MAPKAP-K2(h) (Homo sapiens, UniProt P49137); assay: Millipore kinaseprofiler diversity array; type: biochemical; conditions: 10 µM MS-0022
T21 construct: purchased Millipore (Upstate) KinaseProfiler
Method: as §1

[24] = target: T22, PDGFRβ(h) (Homo sapiens, UniProt P09619); assay: Millipore kinaseprofiler diversity array; type: biochemical; conditions: 10 µM MS-0022
T22 construct: purchased Millipore (Upstate) KinaseProfiler
Method: as §1

[25] = target: T23, Lyn(h) (Homo sapiens, UniProt P07948); assay: Millipore kinaseprofiler diversity array; type: biochemical; conditions: 10 µM MS-0022
T23 construct: purchased Millipore (Upstate) KinaseProfiler
Method: as §1

[26] = target: T24, cKit(h) (Homo sapiens, UniProt P10721); assay: Millipore kinaseprofiler diversity array; type: biochemical; conditions: 10 µM MS-0022
T24 construct: purchased Millipore (Upstate) KinaseProfiler
Method: as §1

[27] = target: T25, MST1(h) (Homo sapiens, UniProt Q13043); assay: Millipore kinaseprofiler diversity array; type: biochemical; conditions: 10 µM MS-0022
T25 construct: purchased Millipore (Upstate) KinaseProfiler
Method: as §1

[28] = target: T26, CDK2/cyclinA(h) (Homo sapiens, UniProt P24941); assay: Millipore kinaseprofiler diversity array; type: biochemical; conditions: 10 µM MS-0022
T26 construct: purchased Millipore (Upstate) KinaseProfiler
Method: as §1

[29] = target: T27, Fyn(h) (Homo sapiens, UniProt P06241); assay: Millipore kinaseprofiler diversity array; type: biochemical; conditions: 10 µM MS-0022
T27 construct: purchased Millipore (Upstate) KinaseProfiler
Method: as §1

[30] = target: T28, Rse(h) (Homo sapiens, UniProt Q06418); assay: Millipore kinaseprofiler diversity array; type: biochemical; conditions: 10 µM MS-0022
T28 construct: purchased Millipore (Upstate) KinaseProfiler
Method: as §1

[31] = target: T29, CDK9/cyclin T1(h) (Homo sapiens, UniProt P50750); assay: Millipore kinaseprofiler diversity array; type: biochemical; conditions: 10 µM MS-0022
T29 construct: purchased Millipore (Upstate) KinaseProfiler
Method: as §1

[32] = target: T30, JAK2(h) (Homo sapiens, UniProt O60674); assay: Millipore kinaseprofiler diversity array; type: biochemical; conditions: 10 µM MS-0022
T30 construct: purchased Millipore (Upstate) KinaseProfiler
Method: as §1

[33] = target: T31, Mnk2(h) (Homo sapiens, UniProt Q9HBH9); assay: Millipore kinaseprofiler diversity array; type: biochemical; conditions: 10 µM MS-0022
T31 construct: purchased Millipore (Upstate) KinaseProfiler
Method: as §1

[34] = target: T32, Plk3(h) (Homo sapiens, UniProt Q9H4B4); assay: Millipore kinaseprofiler diversity array; type: biochemical; conditions: 10 µM MS-0022
T32 construct: purchased Millipore (Upstate) KinaseProfiler
Method: as §1

[35] = target: T33, MSK2(h) (Homo sapiens, UniProt O75676); assay: Millipore kinaseprofiler diversity array; type: biochemical; conditions: 10 µM MS-0022
T33 construct: purchased Millipore (Upstate) KinaseProfiler
Method: as §1

[36] = target: T34, CDK1/cyclinB(h) (Homo sapiens, UniProt P06493); assay: Millipore kinaseprofiler diversity array; type: biochemical; conditions: 10 µM MS-0022
T34 construct: purchased Millipore (Upstate) KinaseProfiler
Method: as §1

[37] = target: T35, LOK(h) (Homo sapiens, UniProt O94804); assay: Millipore kinaseprofiler diversity array; type: biochemical; conditions: 10 µM MS-0022
T35 construct: purchased Millipore (Upstate) KinaseProfiler
Method: as §1

[38] = target: T36, PAK2(h) (Homo sapiens, UniProt Q13177); assay: Millipore kinaseprofiler diversity array; type: biochemical; conditions: 10 µM MS-0022
T36 construct: purchased Millipore (Upstate) KinaseProfiler
Method: as §1

[39] = target: T37, IRAK4(h) (Homo sapiens, UniProt Q9NWZ3); assay: Millipore kinaseprofiler diversity array; type: biochemical; conditions: 10 µM MS-0022
T37 construct: purchased Millipore (Upstate) KinaseProfiler
Method: as §1

T5 sequence (Q16539 whole entry): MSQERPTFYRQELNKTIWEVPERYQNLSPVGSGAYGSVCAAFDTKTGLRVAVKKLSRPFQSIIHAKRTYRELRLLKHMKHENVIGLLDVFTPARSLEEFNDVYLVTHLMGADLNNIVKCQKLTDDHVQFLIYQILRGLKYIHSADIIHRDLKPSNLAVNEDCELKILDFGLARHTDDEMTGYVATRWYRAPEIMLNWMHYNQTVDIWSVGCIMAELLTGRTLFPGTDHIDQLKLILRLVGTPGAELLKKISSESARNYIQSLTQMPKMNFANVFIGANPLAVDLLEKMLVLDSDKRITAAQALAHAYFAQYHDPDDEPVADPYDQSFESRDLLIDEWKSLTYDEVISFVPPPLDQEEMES
T3 sequence (O43318 1-303 limits assumed): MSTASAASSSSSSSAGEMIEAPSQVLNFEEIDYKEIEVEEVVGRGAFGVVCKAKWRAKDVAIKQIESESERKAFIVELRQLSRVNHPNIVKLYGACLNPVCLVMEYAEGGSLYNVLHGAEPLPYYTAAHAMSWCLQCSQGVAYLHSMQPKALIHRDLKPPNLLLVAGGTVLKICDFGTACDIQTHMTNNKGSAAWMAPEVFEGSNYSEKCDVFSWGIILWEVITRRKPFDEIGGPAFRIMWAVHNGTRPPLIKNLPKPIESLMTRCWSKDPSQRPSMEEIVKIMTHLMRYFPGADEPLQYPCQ
T34 sequence (P06493 whole entry): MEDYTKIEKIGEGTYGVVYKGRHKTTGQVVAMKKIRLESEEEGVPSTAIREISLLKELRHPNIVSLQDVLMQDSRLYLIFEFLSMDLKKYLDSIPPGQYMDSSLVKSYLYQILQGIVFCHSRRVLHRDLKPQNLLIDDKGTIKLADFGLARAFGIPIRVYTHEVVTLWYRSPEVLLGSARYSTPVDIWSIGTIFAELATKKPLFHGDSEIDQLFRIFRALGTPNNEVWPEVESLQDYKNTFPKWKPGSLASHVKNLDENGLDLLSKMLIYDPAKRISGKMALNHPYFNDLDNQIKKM
T34 sequence (P14635 whole entry partner): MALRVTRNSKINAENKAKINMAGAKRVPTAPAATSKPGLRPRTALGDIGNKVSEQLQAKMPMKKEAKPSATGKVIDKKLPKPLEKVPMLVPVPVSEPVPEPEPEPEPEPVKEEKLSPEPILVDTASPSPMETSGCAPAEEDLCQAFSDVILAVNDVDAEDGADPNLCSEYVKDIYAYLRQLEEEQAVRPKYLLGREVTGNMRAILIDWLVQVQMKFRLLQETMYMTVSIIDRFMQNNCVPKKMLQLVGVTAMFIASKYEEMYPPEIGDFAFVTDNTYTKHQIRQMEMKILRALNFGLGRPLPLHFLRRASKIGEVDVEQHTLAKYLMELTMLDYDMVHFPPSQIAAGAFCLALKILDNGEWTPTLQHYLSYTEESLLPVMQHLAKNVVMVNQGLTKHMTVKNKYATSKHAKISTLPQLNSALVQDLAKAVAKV
T15 sequence (O14757 whole entry): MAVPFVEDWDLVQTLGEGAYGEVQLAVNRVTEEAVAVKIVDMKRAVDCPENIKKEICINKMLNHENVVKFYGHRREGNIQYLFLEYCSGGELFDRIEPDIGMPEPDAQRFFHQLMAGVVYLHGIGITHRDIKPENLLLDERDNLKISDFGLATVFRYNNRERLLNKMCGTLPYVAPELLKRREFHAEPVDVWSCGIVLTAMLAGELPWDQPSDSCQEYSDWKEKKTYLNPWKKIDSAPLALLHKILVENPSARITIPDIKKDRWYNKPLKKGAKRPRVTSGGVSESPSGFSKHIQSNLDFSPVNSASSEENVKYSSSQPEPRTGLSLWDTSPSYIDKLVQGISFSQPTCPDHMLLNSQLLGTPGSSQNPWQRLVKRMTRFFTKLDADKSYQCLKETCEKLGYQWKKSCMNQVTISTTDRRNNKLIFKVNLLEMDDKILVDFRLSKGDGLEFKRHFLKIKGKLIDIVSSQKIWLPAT
T18 sequence (P04049 whole entry): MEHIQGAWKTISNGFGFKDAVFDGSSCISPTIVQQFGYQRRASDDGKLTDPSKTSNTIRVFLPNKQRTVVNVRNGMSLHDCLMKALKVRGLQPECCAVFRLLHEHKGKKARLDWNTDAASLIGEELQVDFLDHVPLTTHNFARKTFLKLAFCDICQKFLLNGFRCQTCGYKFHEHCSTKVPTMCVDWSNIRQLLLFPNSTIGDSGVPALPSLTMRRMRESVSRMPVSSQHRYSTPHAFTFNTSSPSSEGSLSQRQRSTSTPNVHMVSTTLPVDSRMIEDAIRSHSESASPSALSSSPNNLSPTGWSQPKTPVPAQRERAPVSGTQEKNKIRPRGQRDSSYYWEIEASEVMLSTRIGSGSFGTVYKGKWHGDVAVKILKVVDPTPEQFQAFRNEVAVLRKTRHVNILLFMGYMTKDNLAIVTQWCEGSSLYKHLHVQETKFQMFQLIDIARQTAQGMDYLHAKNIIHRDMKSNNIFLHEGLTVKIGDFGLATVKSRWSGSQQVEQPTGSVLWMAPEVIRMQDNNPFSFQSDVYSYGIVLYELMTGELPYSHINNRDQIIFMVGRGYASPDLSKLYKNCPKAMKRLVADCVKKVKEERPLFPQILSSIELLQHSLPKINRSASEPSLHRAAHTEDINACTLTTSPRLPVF
T14 sequence (Q9HCP0 whole entry): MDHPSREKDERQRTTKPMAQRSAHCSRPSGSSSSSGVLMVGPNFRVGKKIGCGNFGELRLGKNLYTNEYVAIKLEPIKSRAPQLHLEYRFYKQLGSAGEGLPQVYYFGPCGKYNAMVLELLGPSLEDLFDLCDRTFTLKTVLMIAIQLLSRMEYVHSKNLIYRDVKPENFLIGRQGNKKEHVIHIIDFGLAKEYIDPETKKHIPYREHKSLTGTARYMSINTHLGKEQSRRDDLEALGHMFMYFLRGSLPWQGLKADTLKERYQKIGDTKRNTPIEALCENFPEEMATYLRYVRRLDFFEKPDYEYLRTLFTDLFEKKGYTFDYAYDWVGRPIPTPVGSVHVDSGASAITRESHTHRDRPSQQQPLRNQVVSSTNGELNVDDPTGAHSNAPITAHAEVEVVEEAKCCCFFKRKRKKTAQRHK
T28 sequence (Q06418 41-890): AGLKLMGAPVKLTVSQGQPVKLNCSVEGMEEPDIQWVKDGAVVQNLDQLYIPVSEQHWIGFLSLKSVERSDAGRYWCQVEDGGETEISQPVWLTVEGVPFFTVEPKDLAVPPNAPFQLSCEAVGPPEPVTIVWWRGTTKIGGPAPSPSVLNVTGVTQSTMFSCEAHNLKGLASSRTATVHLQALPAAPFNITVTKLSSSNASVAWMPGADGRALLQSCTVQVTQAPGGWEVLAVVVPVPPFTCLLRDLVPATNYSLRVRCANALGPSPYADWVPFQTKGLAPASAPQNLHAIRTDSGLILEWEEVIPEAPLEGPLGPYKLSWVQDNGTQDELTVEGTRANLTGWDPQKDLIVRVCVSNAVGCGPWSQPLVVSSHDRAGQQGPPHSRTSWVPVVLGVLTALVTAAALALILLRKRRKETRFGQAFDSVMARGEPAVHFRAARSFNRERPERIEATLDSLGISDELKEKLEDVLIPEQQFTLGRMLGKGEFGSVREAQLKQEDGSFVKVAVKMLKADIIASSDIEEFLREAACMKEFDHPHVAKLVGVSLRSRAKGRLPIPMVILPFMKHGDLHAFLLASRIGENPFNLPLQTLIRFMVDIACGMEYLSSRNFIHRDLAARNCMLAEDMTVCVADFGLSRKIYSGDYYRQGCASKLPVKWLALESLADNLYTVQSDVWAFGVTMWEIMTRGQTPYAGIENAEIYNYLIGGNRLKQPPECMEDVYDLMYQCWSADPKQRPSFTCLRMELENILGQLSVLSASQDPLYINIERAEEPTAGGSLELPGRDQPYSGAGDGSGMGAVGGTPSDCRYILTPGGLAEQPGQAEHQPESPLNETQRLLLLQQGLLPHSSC
T21 sequence (P49137 whole entry): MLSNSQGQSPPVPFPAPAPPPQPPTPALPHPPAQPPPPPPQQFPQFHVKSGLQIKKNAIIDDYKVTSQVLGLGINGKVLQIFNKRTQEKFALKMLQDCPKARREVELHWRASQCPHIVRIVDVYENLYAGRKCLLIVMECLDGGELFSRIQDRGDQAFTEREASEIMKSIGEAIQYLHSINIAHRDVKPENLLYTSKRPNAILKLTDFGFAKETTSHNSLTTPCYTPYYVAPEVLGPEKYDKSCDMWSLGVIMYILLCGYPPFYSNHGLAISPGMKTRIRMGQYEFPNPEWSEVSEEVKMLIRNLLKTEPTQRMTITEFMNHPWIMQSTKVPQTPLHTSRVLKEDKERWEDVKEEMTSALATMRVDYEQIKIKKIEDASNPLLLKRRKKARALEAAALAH
T33 sequence (O75676 whole entry): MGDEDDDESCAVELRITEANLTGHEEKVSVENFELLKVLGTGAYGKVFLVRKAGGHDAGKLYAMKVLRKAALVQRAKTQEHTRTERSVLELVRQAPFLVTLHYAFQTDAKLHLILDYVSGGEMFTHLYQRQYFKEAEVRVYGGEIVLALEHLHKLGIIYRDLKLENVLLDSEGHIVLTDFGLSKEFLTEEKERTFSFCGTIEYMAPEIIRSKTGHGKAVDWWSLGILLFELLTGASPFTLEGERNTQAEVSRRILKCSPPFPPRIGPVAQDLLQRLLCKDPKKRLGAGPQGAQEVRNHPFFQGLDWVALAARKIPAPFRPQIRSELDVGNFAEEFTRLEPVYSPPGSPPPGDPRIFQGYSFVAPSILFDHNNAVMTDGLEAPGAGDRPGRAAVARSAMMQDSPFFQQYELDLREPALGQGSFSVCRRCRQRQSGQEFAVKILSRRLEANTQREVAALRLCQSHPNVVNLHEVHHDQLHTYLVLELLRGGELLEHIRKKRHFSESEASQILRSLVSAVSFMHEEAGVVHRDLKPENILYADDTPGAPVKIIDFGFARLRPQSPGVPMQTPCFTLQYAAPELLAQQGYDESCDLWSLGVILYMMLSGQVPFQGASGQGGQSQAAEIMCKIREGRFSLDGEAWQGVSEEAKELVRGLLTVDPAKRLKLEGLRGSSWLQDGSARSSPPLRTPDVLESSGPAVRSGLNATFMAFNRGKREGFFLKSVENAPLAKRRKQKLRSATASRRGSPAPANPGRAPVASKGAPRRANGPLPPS

With `Cc1cccn2cc(-c3ccc(NC(=O)c4ccccc4Br)cc3)nc12` [MS-0022, 2-bromo-N-(4-(8-methylimidazo[1,2-a]pyridin-2-yl)phenyl)benzamide] the “ratio of nuclear versus cytoplasmic Gli1” value [1] was “did not alter the ratio”, the “total level of Gli1 in the cells” value [1] was “the total level of Gli1 in the cells was reduced” and the “growth (MTS), PANC-1” value [2] was “reduced growth”. It also gave an activity at 10 µM [3] of 102%, an activity at 10 µM [4] of 91% and an activity at 10 µM [5] of 98%. The activity at 10 µM [6] was 109%, the activity at 10 µM [7] was 102% and the activity at 10 µM [8] was 112%. For the same molecule, the activity at 10 µM [9] was 106%, the activity at 10 µM [10] was 95% and the activity at 10 µM [11] was 103%. It also gave an activity at 10 µM [12] of 84%, an activity at 10 µM [13] of 107% and an activity at 10 µM [14] of 99%. It also gave an activity at 10 µM [15] of 96%, an activity at 10 µM [16] of 93% and an activity at 10 µM [17] of 84%. The activity at 10 µM [18] was 71%, the activity at 10 µM [19] was 103% and the activity at 10 µM [20] was 106%. It also gave an activity at 10 µM [21] of 109%, an activity at 10 µM [22] of 106% and an activity at 10 µM [23] of 92%. For the same molecule, the activity at 10 µM [24] was 108%, the activity at 10 µM [25] was 103% and the activity at 10 µM [26] was 109%. For the same molecule, the activity at 10 µM [27] was 94%, the activity at 10 µM [28] was 98% and the activity at 10 µM [29] was 100%. It also gave an activity at 10 µM [30] of 107%, an activity at 10 µM [31] of 98% and an activity at 10 µM [32] of 110%. The activity at 10 µM [33] was 90%, the activity at 10 µM [34] was 107% and the activity at 10 µM [35] was 92%. For the same molecule, the activity at 10 µM [36] was 110%, the activity at 10 µM [37] was 93% and the activity at 10 µM [38] was 93%. For the same molecule, the activity at 10 µM [39] was 95%.
